PubChem BioAssay AID248 (DTP/NCI, 2004)
Toxic doses and inconclusive results are not listed. Cut-off read from the data, not from the text of the source: active = T/C of 150% or more; inactive = T/C below 125%.

System: L1210 leukemia ip in BDF1 mice, survival T/C
Assay: NCI In Vivo Anticancer Drug Screen. Data for tumor model L1210 Leukemia (intraperitoneal) in B6D2F1 (BDF1) mice
Conditions: endpoint: mean survival time, higher = longer survival
Outline: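 Each compound was tested against a transplantable tumor grown in mice. The endpoint was survival, with treated animals benchmarked against vehicle controls as a simple ratio.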

[1] = dose: 100.0 mg/kg/injection, schedule: Q04DX002 (ip), vehicle: saline with Tween-80
[2] = dose: 200.0 mg/kg/injection, schedule: Q04DX002 (ip), vehicle: saline with Tween-80
[3] = dose: 400.0 mg/kg/injection, schedule: Q04DX002 (ip), vehicle: saline with Tween-80
[4] = dose: 12.5 mg/kg/injection, schedule: Q04DX003 (ip), vehicle: saline
[5] = dose: 25.0 mg/kg/injection, schedule: Q04DX003 (ip), vehicle: saline
[6] = dose: 100.0 mg/kg/injection, schedule: Q04DX003 (ip), vehicle: saline
[7] = dose: 100.0 mg/kg/injection, schedule: Q04DX003 (ip), vehicle: saline with Tween-80
[8] = dose: 200.0 mg/kg/injection, schedule: Q04DX003 (ip), vehicle: saline with Tween-80

Measured: T/C

Cc1cc(=O)c(O)c(N(C)C)o1
inactive: [1] 102 % of control | [2] 102 % of control | [3] 115 % of control

Oc1c(C(c2ccccc2)N2CCCC2)ccc2ccccc12 (configuration not stated)
inactive: dose: 75.0 mg/kg/injection, schedule: Q04DX003 (ip), vehicle: saline with Tween-80 100 % of control | dose: 150.0 mg/kg/injection, schedule: Q04DX003 (ip), vehicle: saline with Tween-80 92 % of control | dose: 300.0 mg/kg/injection, schedule: Q04DX003 (ip), vehicle: saline with Tween-80 96 % of control

CC(C(=O)N1c2ccccc2Sc2ccccc21)[N+](C)(C)C (configuration not stated)
inactive: [4] 112 % of control | dose: 25.0 mg/kg/injection, schedule: Q01DX009 (ip), vehicle: saline 100 % of control | [5] 98 % of control | dose: 50.0 mg/kg/injection, schedule: Q01DX009 (ip), vehicle: saline 102 % of control | dose: 50.0 mg/kg/injection, schedule: Q04DX003 (ip), vehicle: saline 104 % of control | [6] 104 % of control

OC1c2cc(Cl)cc(Cl)c2-c2c(Cl)cc(Cl)cc21
inactive: [6] 96 % of control | dose: 200.0 mg/kg/injection, schedule: Q04DX003 (ip), vehicle: saline 98 % of control | dose: 400.0 mg/kg/injection, schedule: Q04DX003 (ip), vehicle: saline 106 % of control

O=C1NCC(Nc2ccc(Br)cc2Cl)C(=O)N1 (configuration not stated)
inactive: dose: 100.0 mg/kg/injection, schedule: Q01DX Z (ip), vehicle: methylcellulose (MC) 96 % of control | dose: 200.0 mg/kg/injection, schedule: Q01DX Z (ip), vehicle: methylcellulose (MC) 90 % of control

CCCCCCCCCCCCCCCCN(C)S(=O)(=O)c1ccc2sc(SC)[n+](C)c2c1 (tested in a mixture with another compound)
inactive: dose: 100.0 mg/kg/injection, schedule: Q01DX009 (ip), vehicle: saline with Tween-80 94 % of control | [7] 98 % of control | dose: 200.0 mg/kg/injection, schedule: Q01DX009 (ip), vehicle: saline with Tween-80 94 % of control | [8] 102 % of control | dose: 400.0 mg/kg/injection, schedule: Q01DX009 (ip), vehicle: saline with Tween-80 102 % of control | dose: 400.0 mg/kg/injection, schedule: Q04DX003 (ip), vehicle: saline with Tween-80 96 % of control

NCCSC(C[N+](=O)[O-])c1ccc2c(c1)OCO2 (configuration not stated)
inactive: [7] 93 % of control | [8] 98 % of control

CC1CC(=O)C2CC(Cl)CCC2(C)C1C (configuration not stated)
inactive: [7] 101 % of control | dose: 150.0 mg/kg/injection, schedule: Q01DX009 (ip), vehicle: Klucel (hydroxypropylcellulose) (HPC) 91 % of control | dose: 225.0 mg/kg/injection, schedule: Q01DX009 (ip), vehicle: Klucel (hydroxypropylcellulose) (HPC) 97 % of control

O=C(Nc1ccccc1F)c1ccc(C(=O)Nc2ccccc2F)cc1
inactive: dose: 12.5 mg/kg/injection, schedule: Q01DX009 (ip), vehicle: saline with Tween-80 92 % of control | dose: 25.0 mg/kg/injection, schedule: Q01DX009 (ip), vehicle: saline with Tween-80 86 % of control | dose: 50.0 mg/kg/injection, schedule: Q01DX009 (ip), vehicle: saline with Tween-80 90 % of control | [7] 90 % of control | [8] 87 % of control

CCOc1ccc(N=Cc2ccc(OC(=O)c3ccccc3)c(OC)c2)cc1
inactive: [1] 102 % of control | [2] 95 % of control | [3] 113 % of control

CN(C)c1nc2c(=O)[nH]cnc2n1C1OC(CO)C(O)C1O (configuration not stated)
inactive: dose: 50.0 mg/kg/injection, schedule: Q01DX001 (ip), vehicle: saline 95 % of control | dose: 100.0 mg/kg/injection, schedule: Q01DX001 (ip), vehicle: saline 93 % of control | dose: 200.0 mg/kg/injection, schedule: Q01DX001 (ip), vehicle: saline 112 % of control | dose: 400.0 mg/kg/injection, schedule: Q01DX001 (ip), vehicle: saline 95 % of control

CCOP(=O)(OCC)N1C(=O)CCC1=O
inactive: dose: 6.25 mg/kg/injection, schedule: Q04DX003 (ip), vehicle: saline 105 % of control | [4] 100 % of control | dose: 13.75 mg/kg/injection, schedule: Q01DX009 (ip), vehicle: saline 88 % of control | [5] 103 % of control | dose: 27.5 mg/kg/injection, schedule: Q01DX009 (ip), vehicle: saline 94 % of control | dose: 35.0 mg/kg/injection, schedule: Q04DX003 (ip), vehicle: saline 102 % of control | dose: 55.0 mg/kg/injection, schedule: Q04DX003 (ip), vehicle: saline 101 % of control
